Experimental data published in US20230114728A1 (Venatorx Pharmaceuticals, Inc., priority 2019, published 2023).
Values after ≈ are worked out from the molar mass of the structure shown.

How the values were obtained:
Experiment in all cases: Broth microdilution MIC in iron-depleted CAMHB (IDM)
Assay type in all cases: cell-based
A. baumannii ATCC 17978 = settings: Acinetobacter baumannii, ATCC17978, read-out: Minimum Inhibitory Concentration, ATCC 17978
Method in brief: (§1)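 Iron-limited medium: CAMHB chelated with Chelex 100, cations restored, pH 7.3. CLSI-based microdilution, 2-8×10^5 CFU/mL inoculum, 37° C for 16-20 h (P. aeruginosa) or 20-24 h (A. baumannii). Endpoint is no visible growth.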

A. baumannii ATCC 19606 = settings: Acinetobacter baumannii, ATCC19606, read-out: Minimum Inhibitory Concentration, ATCC 19606
Method in brief: as §1

[1] = test system: A. baumannii CDC-0033 producing NDM-1, and OXA-94; settings: Acinetobacter baumannii, read-out: Minimum Inhibitory Concentration, CDC-0033
Method in brief: as §1

[2] = test system: A. baumannii CDC-0036 OXA-65, and OXA-24; settings: Acinetobacter baumannii, read-out: Minimum Inhibitory Concentration, CDC-0036
Method in brief: as §1

[3] = test system: A. baumannii CDC-0083 producing NDM-1, PER-7, OXA-23, and OXA-69; settings: Acinetobacter baumannii, read-out: Minimum Inhibitory Concentration, CDC-0083
Method in brief: as §1

[4] = test system: A. baumannii IL123 (ABΔ3-ARAEcPore); settings: Acinetobacter baumannii, read-out: Minimum Inhibitory Concentration, IL-2123
Method in brief: as §1

[5] = test system: P. aeruginosa (ΔmexAB-oprM); settings: Pseudomonas aeruginosa, read-out: Minimum Inhibitory Concentration, P. aeruginosa ΔmexAB-OprM
Method in brief: as §1

P. aeruginosa ATCC 27853 = settings: Pseudomonas aeruginosa, ATCC27853, read-out: Minimum Inhibitory Concentration, P. aeruginosa ATCC 27853
Method in brief: as §1

P. aeruginosa ATCC 35151 = settings: Pseudomonas aeruginosa, ATCC35151; iron-depleted MHB (IDM); hyper-permeable strain; read-out: Minimum Inhibitory Concentration, P. aeruginosa ATCC 35151
Method in brief: as §1

[6] = test system: P. aeruginosa CDC-0054 producing VIM-4, OXA-50, and PAO; settings: Pseudomonas aeruginosa, read-out: Minimum Inhibitory Concentration, P. aeruginosa CDC-0054
Method in brief: as §1

[7] = test system: P. aeruginosa CDC-0090 producing KPC-5, OXA-50, and PAO; settings: Pseudomonas aeruginosa, read-out: Minimum Inhibitory Concentration, P. aeruginosa CDC-0090
Method in brief: as §1

[8] = test system: P. aeruginosa CDC-0095 producing OXA-50, and PAO; settings: Pseudomonas aeruginosa, read-out: Minimum Inhibitory Concentration, P. aeruginosa CDC-0095
Method in brief: as §1

[9] = test system: A. baumannii CDC-0045 producing TEM-1D, OXA-23, and OXA-69; settings: Acinetobacter baumannii, read-out: Minimum Inhibitory Concentration, CDC-0045
P. aeruginosa CDC-0110 = settings: Pseudomonas aeruginosa, CDC0110, read-out: Minimum Inhibitory Concentration, P. aeruginosa CDC-0110
Method in brief: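 MIC is the lowest well showing no visible growth after 16-20 h at 37 °C, starting from 2-8×10^5 CFU/mL in 2-fold serial compound dilutions. Medium: cation-adjusted Mueller Hinton broth iron-depleted with Chelex 100, supplemented back with Ca, Mg and Zn, pH 7.3; CLSI protocol.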

CCN1CCN(C(=O)NC(C(=O)N[C@H]2Cc3ccc(F)c(C(=O)O)c3OB2O)c2c(F)cc(O)c(O)c2F)C(=O)C1=O (stereo partly drawn) [Example 36, (3R)-3-(2-(2,6-difluoro-3,4-dihydroxyphenyl)-2-(4-ethyl-2,3-dioxopiperazine-1-carboxamido)acetamido)-7-fluoro-2-hydroxy-3,4-dihydro-2H-benzo[e][1,2]oxaborinine-8-carboxylic acid]
MIC (A. baumannii ATCC 17978): 0.25 µg/mL (≈ 0.421 µM)
MIC (A. baumannii ATCC 19606): 0.25 µg/mL (≈ 0.421 µM)
MIC [1]: 0.5 to 1 µg/mL (≈ 0.841 to 1.68 µM)
MIC [2]: 0.5 to 1 µg/mL (≈ 0.841 to 1.68 µM)
MIC [3]: 0.25 µg/mL (≈ 0.421 µM)
MIC [4]: 0.5 to 1 µg/mL (≈ 0.841 to 1.68 µM)
MIC [5]: 0.25 µg/mL (≈ 0.421 µM)
MIC (P. aeruginosa ATCC 27853): 0.5 to 1 µg/mL (≈ 0.841 to 1.68 µM)
MIC (P. aeruginosa ATCC 35151): 0.25 µg/mL (≈ 0.421 µM)
MIC [6]: 0.5 to 1 µg/mL (≈ 0.841 to 1.68 µM)
MIC [7]: 0.5 to 1 µg/mL (≈ 0.841 to 1.68 µM)
MIC [8]: 8 to 16 µg/mL (≈ 13.5 to 26.9 µM)
MIC [9]: 0.25 µg/mL (≈ 0.421 µM)
MIC (P. aeruginosa CDC-0110): 0.5 to 1 µg/mL (≈ 0.841 to 1.68 µM)

O=C(O)c1c(F)ccc2c1OB(O)[C@@H](NC(=O)C(NC(=O)N1CCN(CCBr)C(=O)C1=O)c1c(F)cc(O)c(O)c1F)C2 (stereo partly drawn) [Example 38, (3R)-3-(2-(4-(2-bromoethyl)-2,3-dioxopiperazine-1-carboxamido)-2-(2,6-difluoro-3,4-dihydroxyphenyl)acetamido)-7-fluoro-2-hydroxy-3,4-dihydro-2H-benzo[e][1,2]oxaborinine-8-carboxylic acid]
MIC (A. baumannii ATCC 17978): 0.25 µg/mL (≈ 0.371 µM)
MIC (A. baumannii ATCC 19606): 0.25 µg/mL (≈ 0.371 µM)
MIC [1]: 2 to 4 µg/mL (≈ 2.97 to 5.94 µM)
MIC [2]: 2 to 4 µg/mL (≈ 2.97 to 5.94 µM)
MIC [3]: 0.5 to 1 µg/mL (≈ 0.743 to 1.49 µM)
MIC [4]: 2 to 4 µg/mL (≈ 2.97 to 5.94 µM)
MIC [5]: 0.25 µg/mL (≈ 0.371 µM)
MIC (P. aeruginosa ATCC 27853): 2 to 4 µg/mL (≈ 2.97 to 5.94 µM)
MIC (P. aeruginosa ATCC 35151): 0.25 µg/mL (≈ 0.371 µM)
MIC [6]: 8 to 16 µg/mL (≈ 11.9 to 23.8 µM)
MIC [7]: 2 to 4 µg/mL (≈ 2.97 to 5.94 µM)
MIC [8]: 8 to 16 µg/mL (≈ 11.9 to 23.8 µM)
MIC [9]: 0.5 to 1 µg/mL (≈ 0.743 to 1.49 µM)
MIC (P. aeruginosa CDC-0110): 0.5 to 1 µg/mL (≈ 0.743 to 1.49 µM)

CS(=O)(=O)N1CCN(C(=O)N[C@@H](C(=O)N[C@H]2Cc3ccc(F)c(C(=O)O)c3OB2O)c2c(F)cc(O)c(O)c2Cl)C1=O (single isomer, unassigned) [Example 35]
MIC (A. baumannii ATCC 17978): 0.25 µg/mL (≈ 0.395 µM)
MIC (A. baumannii ATCC 19606): 0.25 µg/mL (≈ 0.395 µM)
MIC [1]: 0.5 to 1 µg/mL (≈ 0.79 to 1.58 µM)
MIC [2]: 0.5 to 1 µg/mL (≈ 0.79 to 1.58 µM)
MIC [3]: 0.25 µg/mL (≈ 0.395 µM)
MIC [4]: 2 to 4 µg/mL (≈ 3.16 to 6.32 µM)
MIC [5]: 0.25 µg/mL (≈ 0.395 µM)
MIC (P. aeruginosa ATCC 27853): 0.5 to 1 µg/mL (≈ 0.79 to 1.58 µM)
MIC (P. aeruginosa ATCC 35151): 0.25 µg/mL (≈ 0.395 µM)
MIC [6]: 0.5 to 1 µg/mL (≈ 0.79 to 1.58 µM)
MIC [7]: 0.5 to 1 µg/mL (≈ 0.79 to 1.58 µM)
MIC [8]: 32 to 64 µg/mL (≈ 50.6 to 101 µM)
MIC [9]: 0.25 µg/mL (≈ 0.395 µM)
MIC (P. aeruginosa CDC-0110): 0.5 to 1 µg/mL (≈ 0.79 to 1.58 µM)

O=C(Nc1ccc(O)c(O)c1Cl)NC(C(=O)N[C@H]1Cc2ccc(F)c(C(=O)O)c2OB1O)c1ncc(O)cc1F (stereo partly drawn) [Example 9, (3R)-3-(2-(3-(2-chloro-3,4-dihydroxyphenyl)ureido)-2-(3-fluoro-5-hydroxypyridin-2-yl)acetamido)-7-fluoro-2-hydroxy-3,4-dihydro-2H-benzo[e][1,2]oxaborinine-8-carboxylic acid]
MIC (A. baumannii ATCC 17978): 32 to 64 µg/mL (≈ 55.3 to 111 µM)
MIC (A. baumannii ATCC 19606): 32 to 64 µg/mL (≈ 55.3 to 111 µM)
MIC [1]: 32 to 64 µg/mL (≈ 55.3 to 111 µM)
MIC [2]: 32 to 64 µg/mL (≈ 55.3 to 111 µM)
MIC [3]: 32 to 64 µg/mL (≈ 55.3 to 111 µM)
MIC [4]: 32 to 64 µg/mL (≈ 55.3 to 111 µM)
MIC [5]: 0.5 to 1 µg/mL (≈ 0.864 to 1.73 µM)
MIC (P. aeruginosa ATCC 27853): 8 to 16 µg/mL (≈ 13.8 to 27.6 µM)
MIC (P. aeruginosa ATCC 35151): 0.25 µg/mL (≈ 0.432 µM)
MIC [6]: 32 to 64 µg/mL (≈ 55.3 to 111 µM)
MIC [7]: 32 to 64 µg/mL (≈ 55.3 to 111 µM)
MIC [8]: 32 to 64 µg/mL (≈ 55.3 to 111 µM)
MIC [9]: 32 to 64 µg/mL (≈ 55.3 to 111 µM)
MIC (P. aeruginosa CDC-0110): 32 to 64 µg/mL (≈ 55.3 to 111 µM)

O=C(O)c1ccc(C(NC(=O)c2ccc(O)c(O)c2Cl)C(=O)N[C@H]2Cc3cccc(C(=O)O)c3OB2O)cc1F (stereo partly drawn) [Example 7, (3R)-3-(2-(4-carboxy-3-fluorophenyl)-2-(2-chloro-3,4-dihydroxybenzamido)acetamido)-2-hydroxy-3,4-dihydro-2H-benzo[e][1,2]oxaborinine-8-carboxylic acid]
MIC (A. baumannii ATCC 17978): 2 to 4 µg/mL (≈ 3.49 to 6.98 µM)
MIC (A. baumannii ATCC 19606): 32 to 64 µg/mL (≈ 55.9 to 112 µM)
MIC [1]: 32 to 64 µg/mL (≈ 55.9 to 112 µM)
MIC [2]: 32 to 64 µg/mL (≈ 55.9 to 112 µM)
MIC [3]: 32 to 64 µg/mL (≈ 55.9 to 112 µM)
MIC [4]: 32 to 64 µg/mL (≈ 55.9 to 112 µM)
MIC [5]: 0.25 µg/mL (≈ 0.437 µM)
MIC (P. aeruginosa ATCC 27853): 2 to 4 µg/mL (≈ 3.49 to 6.98 µM)
MIC (P. aeruginosa ATCC 35151): 0.25 µg/mL (≈ 0.437 µM)
MIC [6]: 2 to 4 µg/mL (≈ 3.49 to 6.98 µM)
MIC [7]: 0.5 to 1 µg/mL (≈ 0.873 to 1.75 µM)
MIC [8]: 8 to 16 µg/mL (≈ 14 to 27.9 µM)
MIC [9]: 32 to 64 µg/mL (≈ 55.9 to 112 µM)
MIC (P. aeruginosa CDC-0110): 2 to 4 µg/mL (≈ 3.49 to 6.98 µM)
